Source: the NIST ThermoML archive (doi:10.1016/j.jct.2006.07.021)
Several values for one entry are separate records, joined by “and”; a condition that tells them apart may be missing. Equal values may be shown once. Numbers after ± are expanded uncertainties.

Experiment: xn = mol fraction of the nth substance listed
Conditions: 101 kPa, Liquid, Pycnometric method

OCCO [1,2-ethanediol] + NC=O
x2 = 0
Conditions | mass density [kg/m3]
293.15 K | 1113.57 ± 0.33
303.15 K | 1106.51 ± 0.35
313.15 K | 1099.45 ± 0.37

CC(O)CO (configuration not stated) [1,2-propanediol] + NC=O
x2 = 0
Conditions | mass density [kg/m3]
293.15 K | 1036.38 ± 0.35
298.15 K | 1032.76 ± 0.36
303.15 K | 1029.14 ± 0.37
308.15 K | 1025.52 ± 0.38
313.15 K | 1021.9 ± 0.39
318.15 K | 1018.28 ± 0.4

CCO [ethanol] + NC=O
x2 = 0
Conditions | mass density [kg/m3]
293.15 K | 789.46 ± 0.2
298.15 K | 785.2 ± 0.21
303.15 K | 780.75 ± 0.22
308.15 K | 776.42 ± 0.23
313.15 K | 771.81 ± 0.24
318.15 K | 767.38 ± 0.25

NC=O [formamide] + CC(O)CO
mass density [kg/m3]
Conditions | 293.15 K | 298.15 K | 303.15 K | 308.15 K | 313.15 K | 318.15 K
x1 = 0.0567 | 1038.29 ± 0.35 | 1034.56 ± 0.36 | 1030.82 ± 0.37 | 1027.12 ± 0.38 | 1023.41 ± 0.38 | 1019.67 ± 0.39
x1 = 0.1191 | 1040.52 ± 0.34 | 1036.78 ± 0.35 | 1033.03 ± 0.36 | 1029.25 ± 0.37 | 1025.52 ± 0.38 | 1021.77 ± 0.39
x1 = 0.1881 | 1043.47 ± 0.34 | 1039.69 ± 0.35 | 1035.91 ± 0.36 | 1032.11 ± 0.37 | 1028.33 ± 0.38 | 1024.51 ± 0.39
x1 = 0.2649 | 1047.35 ± 0.33 | 1043.5 ± 0.34 | 1039.65 ± 0.35 | 1035.85 ± 0.36 | 1032.01 ± 0.37 | 1028.19 ± 0.38
x1 = 0.3409 | 1051.67 ± 0.33 | 1047.79 ± 0.34 | 1043.96 ± 0.35 | 1040.09 ± 0.36 | 1036.22 ± 0.37 | 1032.37 ± 0.38
x1 = 0.3904 | 1054.79 ± 0.33 | 1050.91 ± 0.34 | 1047.02 ± 0.35 | 1043.15 ± 0.36 | 1039.28 ± 0.37 | 1035.44 ± 0.38
x1 = 0.4478 | 1058.92 ± 0.32 | 1055.02 ± 0.33 | 1051.08 ± 0.34 | 1047.15 ± 0.35 | 1043.24 ± 0.36 | 1039.31 ± 0.37
x1 = 0.4936 | 1062.42 ± 0.32 | 1058.49 ± 0.33 | 1054.56 ± 0.34 | 1050.68 ± 0.35 | 1046.76 ± 0.36 | 1042.86 ± 0.37
x1 = 0.5578 | 1068.01 ± 0.32 | 1064.07 ± 0.33 | 1060.1 ± 0.34 | 1056.12 ± 0.35 | 1052.18 ± 0.36 | 1048.22 ± 0.37
x1 = 0.6262 | 1074.52 ± 0.32 | 1070.55 ± 0.33 | 1066.6 ± 0.34 | 1062.64 ± 0.35 | 1058.66 ± 0.36 | 1054.73 ± 0.37
x1 = 0.6838 | 1080.96 ± 0.32 | 1076.95 ± 0.33 | 1072.95 ± 0.34 | 1068.91 ± 0.35 | 1064.9 ± 0.36 | 1060.87 ± 0.37
x1 = 0.7544 | 1089.83 ± 0.32 | 1085.77 ± 0.33 | 1081.67 ± 0.34 | 1077.58 ± 0.35 | 1073.51 ± 0.36 | 1069.44 ± 0.37
x1 = 0.8295 | 1100.75 ± 0.32 | 1096.63 ± 0.33 | 1092.5 ± 0.34 | 1088.36 ± 0.35 | 1084.26 ± 0.36 | 1080.16 ± 0.37
x1 = 0.8818 | 1109.7 ± 0.32 | 1105.53 ± 0.33 | 1101.4 ± 0.34 | 1097.27 ± 0.35 | 1093.1 ± 0.36 | 1088.94 ± 0.37
x1 = 0.9392 | 1120.57 ± 0.32 | 1116.44 ± 0.33 | 1112.31 ± 0.34 | 1108.16 ± 0.35 | 1104.04 ± 0.36 | 1099.88 ± 0.37
x1 = 1 | 1133 ± 0.32 | 1129 ± 0.33 | 1125 ± 0.34 | 1121 ± 0.35 | 1117 ± 0.36 | 1113 ± 0.37

NC=O [formamide] + CCCO
mass density
Conditions | 293.15 K | 298.15 K | 303.15 K | 308.15 K | 313.15 K | 318.15 K
x1 = 0.0557 | 814.02 ± 0.22 kg/m3 | 810.06 ± 0.22 kg/m3 | 806.09 ± 0.23 kg/m3 | 802.16 ± 0.24 kg/m3 | 798.22 ± 0.25 kg/m3 | 794.25 ± 0.26 kg/m3
x1 = 0.1172 | 826.05 ± 0.22 kg/m3 | 822.13 ± 0.23 kg/m3 | 818.2 ± 0.24 kg/m3 | 814.24 ± 0.25 kg/m3 | 810.33 ± 0.26 kg/m3 | 806.4 ± 0.27 kg/m3
x1 = 0.1854 | 840.26 ± 0.23 kg/m3 | 836.35 ± 0.23 kg/m3 | 832.44 ± 0.24 kg/m3 | 828.51 ± 0.25 kg/m3 | 824.6 ± 0.26 kg/m3 | 820.65 ± 0.27 kg/m3
x1 = 0.2615 | 857.42 ± 0.23 kg/m3 | 853.48 ± 0.24 kg/m3 | 849.54 ± 0.25 kg/m3 | 845.65 ± 0.26 kg/m3 | 841.72 ± 0.27 kg/m3 | 837.81 ± 0.28 kg/m3
x1 = 0.3469 | 878.23 ± 0.24 kg/m3 | 874.3 ± 0.25 kg/m3 | 870.42 ± 0.26 kg/m3 | 866.5 ± 0.27 kg/m3 | 862.58 ± 0.28 kg/m3 | 858.68 ± 0.29 kg/m3
x1 = 0.3912 | 889.89 ± 0.24 kg/m3 | 885.98 ± 0.25 kg/m3 | 882.06 ± 0.26 kg/m3 | 878.16 ± 0.27 kg/m3 | 874.26 ± 0.28 kg/m3 | 870.36 ± 0.29 kg/m3
x1 = 0.4434 | 904.36 ± 0.25 kg/m3 | 900.47 ± 0.26 kg/m3 | 896.54 ± 0.27 kg/m3 | 892.62 ± 0.28 kg/m3 | 888.72 ± 0.29 kg/m3 | 884.8 ± 0.3 kg/m3
x1 = 0.4986 | 920.67 ± 0.25 kg/m3 | 916.75 ± 0.26 kg/m3 | 912.83 ± 0.27 kg/m3 | 908.96 ± 0.28 kg/m3 | 905.05 ± 0.29 kg/m3 | 901.16 ± 0.3 kg/m3
x1 = 0.5534 | 937.91 ± 0.26 kg/m3 | 934.03 ± 0.27 kg/m3 | 930.12 ± 0.28 kg/m3 | 926.2 ± 0.29 kg/m3 | 922.32 ± 0.3 kg/m3 | 918.42 ± 0.31 kg/m3
x1 = 0.6216 | 961.03 ± 0.27 kg/m3 | 957.12 ± 0.28 kg/m3 | 953.23 ± 0.29 kg/m3 | 949.33 ± 0.3 kg/m3 | 945.41 ± 0.31 kg/m3 | 941.54 ± 0.32 kg/m3
x1 = 0.68 | 982.32 ± 0.28 kg/m3 | 978.44 ± 0.29 kg/m3 | 974.57 ± 0.3 kg/m3 | 970.66 ± 0.31 kg/m3 | 966.78 ± 0.32 kg/m3 | 962.88 ± 0.32 kg/m3
x1 = 0.7535 | 1011.59 ± 0.29 kg/m3 | 1007.72 ± 0.3 kg/m3 | 1003.81 ± 0.31 kg/m3 | 999.91 ± 0.32 kg/m3 | 996.03 ± 0.33 kg/m3 | 992.15 ± 0.34 kg/m3
x1 = 0.827 | 1043.7 ± 0.3 kg/m3 | 1039.83 ± 0.31 kg/m3 | 1035.95 ± 0.32 kg/m3 | 1032.06 ± 0.33 kg/m3 | 1028.21 ± 0.34 kg/m3 | 1024.36 ± 0.35 kg/m3
x1 = 0.8832 | 1070.44 ± 0.31 kg/m3 | 1066.54 ± 0.32 kg/m3 | 1062.68 ± 0.33 kg/m3 | 1058.82 ± 0.34 kg/m3 | 1054.92 ± 0.35 kg/m3 | 1051.03 ± 0.36 kg/m3
x1 = 0.9328 | 1095.56 ± 0.32 kg/m3 | 1091.65 ± 0.33 kg/m3 | 1087.74 ± 0.34 kg/m3 | 1083.81 ± 0.35 kg/m3 | 1079.91 ± 0.36 kg/m3 | 1075.97 ± 0.37 kg/m3
x1 = 1 | – | 1133 ± 0.34 kg/m3 and 1129 ± 0.33 kg/m3 | 1125 ± 0.34 kg/m3 | 1121 ± 0.35 kg/m3 | 1117 ± 0.36 kg/m3 | 1113 ± 0.37 kg/m3

NC=O [formamide] + CCO
mass density [kg/m3]
Conditions | 293.15 K | 298.15 K | 303.15 K | 308.15 K | 313.15 K | 318.15 K
x1 = 0.0698 | 807.47 ± 0.22 | 803.3 ± 0.23 | 799.14 ± 0.24 | 794.94 ± 0.24 | 790.75 ± 0.25 | 786.59 ± 0.26
x1 = 0.1412 | 826.72 ± 0.22 | 822.6 ± 0.23 | 818.49 ± 0.24 | 814.41 ± 0.25 | 810.28 ± 0.26 | 806.17 ± 0.27
x1 = 0.2032 | 844.13 ± 0.23 | 840.06 ± 0.24 | 835.99 ± 0.25 | 831.94 ± 0.26 | 827.87 ± 0.27 | 823.84 ± 0.28
x1 = 0.268 | 862.91 ± 0.24 | 858.91 ± 0.24 | 854.91 ± 0.25 | 850.86 ± 0.26 | 846.85 ± 0.27 | 842.82 ± 0.28
x1 = 0.3234 | 879.65 ± 0.24 | 875.69 ± 0.25 | 871.68 ± 0.26 | 867.71 ± 0.27 | 863.74 ± 0.28 | 859.75 ± 0.29
x1 = 0.3874 | 899.52 ± 0.25 | 895.58 ± 0.26 | 891.65 ± 0.27 | 887.7 ± 0.28 | 883.75 ± 0.29 | 879.8 ± 0.3
x1 = 0.4365 | 915.29 ± 0.25 | 911.35 ± 0.26 | 907.45 ± 0.27 | 903.54 ± 0.28 | 899.61 ± 0.29 | 895.7 ± 0.3
x1 = 0.4962 | 935.06 ± 0.26 | 931.19 ± 0.27 | 927.32 ± 0.28 | 923.4 ± 0.29 | 919.52 ± 0.3 | 915.62 ± 0.31
x1 = 0.5423 | 950.83 ± 0.27 | 946.93 ± 0.28 | 943.06 ± 0.29 | 939.2 ± 0.29 | 935.3 ± 0.3 | 931.42 ± 0.31
x1 = 0.5958 | 969.63 ± 0.27 | 965.8 ± 0.28 | 961.95 ± 0.29 | 958.11 ± 0.3 | 954.29 ± 0.31 | 950.42 ± 0.32
x1 = 0.6456 | 987.65 ± 0.28 | 983.82 ± 0.29 | 979.98 ± 0.3 | 976.18 ± 0.31 | 972.35 ± 0.32 | 968.54 ± 0.33
x1 = 0.708 | 1010.93 ± 0.29 | 1007.05 ± 0.3 | 1003.21 ± 0.31 | 999.36 ± 0.32 | 995.49 ± 0.33 | 991.62 ± 0.33
x1 = 0.7748 | 1036.9 ± 0.3 | 1033.01 ± 0.31 | 1029.13 ± 0.32 | 1025.26 ± 0.32 | 1021.35 ± 0.33 | 1017.44 ± 0.34
x1 = 0.8532 | 1068.57 ± 0.31 | 1064.68 ± 0.32 | 1060.75 ± 0.33 | 1056.82 ± 0.34 | 1052.93 ± 0.35 | 1049.03 ± 0.35
x1 = 0.9282 | 1100.66 ± 0.32 | 1096.71 ± 0.33 | 1092.76 ± 0.34 | 1088.83 ± 0.35 | 1084.87 ± 0.36 | 1080.95 ± 0.37
x1 = 1 | 1133 ± 0.32 | 1129 ± 0.33 | 1125 ± 0.34 | 1121 ± 0.35 | 1117 ± 0.36 | 1113 ± 0.37
